In patent publication US20250161238A1, “NMDAR Antagonists Prevent Ageing and Aging-Associated Conditions and Diseases Through Increasing 20S Proteasome Activity” (priority 2022, published 2025):

Key:
[1] = tested on: LC3; test: Autophagy: LC3 turnover and LC3 puncta in HepG2 stably expressing LC3; type: cell-based, human; settings: HepG2 cell stably expressing LC3
Source text: One of the most experimentally straightforward method to monitor autophagic activity is the detection of microtubule-associated protein light chain 3 (LC3) protein processing. LC3 is the only known protein that is specifically associated with all types of autophagic membranes, including phagophore, autophagosome and autolysosome (a hybrid organelle formed by fusion of the autophagosome and lysosome). LC3 is specifically associated with the autophagosome. Upon the autophagy induction, the cytosolic LC3 (LC3-I) is conjugated to phosphatidylethanolamine (PE) to form lipidated LC3 (LC3-II). LC3-II binds to the expanding isolation membrane and remains bounded to complete autophagosome. Therefore, the amount of LC3-II correlates well with the number of autophagosomes, which is widely used as a marker for the autophagosome. Autophagy is a multi-step process which includes not just the formation of autophagosomes, but most importantly, the flux through the entire system, including the degradation of LC3-II upon fusion with lysosomes. Therefore, the expected result is that the LC3-II protein is degraded for complete autophagy. […] However, total amount of LC3 (LC3-I plus LC3II) was not changed.
The other basic protocol for the outophagy detection is monitoring the number of autophagosomes by visualizin LC3 puncta using flourescence microscopy. […]

[2] = tested on: C. elegans; test: C. elegans life span in liquid medium; type: in vivo; settings: for C. elegans survived compared to control: 20th day
Source text: C. elegans is a free-living multicellular organism. Clear age-dependent human like physiological changes at the tissue, cellular, and molecular levels make C. elegans a valuable model for research in the field of aging and life span studies (Ambros, 2006). Accordingly, it was investigated how NMDAR blockers affact the life span of C. elegans. The use of drugs in the C. elegans related studies has been applied in different ways. The drugs were either applied to the LB medium with bacteria OP50, before spreading onto Nematode Growth Medium (NGM) plates (LB medium method), or to the NGM with live (NGM live method) or dead bacteria (NGM dead method), or spotting the drug solution to the surface of plates directly (spot dead method), or growing the worms in liquid medium (liquid growing method) (Ambros, 2006). Liquid growing method achieved the best absorption efficiency in worms. […] Therefore in this invention all the experiements related with the C. elegans were completed in liquid medium. In order to understand the effectiveness of the drug according to the onset time, the memantin was added to the medium on the 1st, 7th and 14th days in a 24-day period and the number of viable worms were determined on the 20nd day.
C. elegans strains used in this study were gift from Dr. Deniz Aksoy, Faculty of Sciency-Trakya University-Turkey. Preparation of liquid culture of C. elegans was prepared according to the Stiernagle, T. Maintenance of C. elegans (Feb. 11, 2006), WormBook, http://www.wormbook.org. Animals were grown on nematode growth medium (NGM) (50 mM NaCl, 2% agar, […], 5 mg/L cholesterol, 1.0 mM CaCl2), 1.0 mM MgSO4, 25 mM potassium phosphate, pH 6.0) seeded with Escherichia coli OP50 at 20° C. using standard methods.
For this purpose, the method described by Sulston, J. & Hodgkin, J. was followed. (See, Methods. in: Wood, W. B. (ed.) The Nematode Caenorhabditis elegans. (1988) Cold Spring Harbor Laboratory, Cold Spring Harbor: 587-606.; Solis, G. M., Petrascheck, M. Measuring Caenorhabditis elegans Life Span in 96 Well Microtiter Plates. 2011, J. Vis. Exp. (49)) Two-3 days old worms with eggs growing in NGM were transferred to 50 ml flask using S-medium. After centrifugation, worms were treated with 20% Alkaline Hypochlorite Solution and the eggs were transferred to the S-medium after washing with S-medium.
To sterilize the animals 300 μL of a 6 mM Fluorodeoxyuridine (FUDR) stock solution was added to 10 ml medium. During the monitoring of their life span, the worms were kept by shaking at a constant speed of 200 rpm. Locomotor activities of the worms were recorded and available.

[3] = tested on: C. elegans; test: NADP+ and NADPH+ amount in C. elegans; type: in vivo; settings: 19th day
Source text: Therefore, the amount of NADP+ and NADPH+ were investigated in C. elagans.

[4] = tested on: human mesenchymal stem cells; test: MTT test of mesenchymal stem cells; type: cell-based; settings: day 21

Compound	total amount of LC3 (LC3-I plus LC3II) [1]	LC3-II amount ([1]; western blot)	C. elegans survived compared to control ([2]; memantin started on day 7 or day 1) [times]	C. elegans survived compared to control ([2]; memantin started on the 14th day) [%]	worms survived compared to no-treatment ([2]; day 21) [times]	life span of C. elegans ([2]; log-rank (Kaplan-Meier))	NADP+ compared to C. elegans without treatment [3] [folds]	lifespan of human mesenchymal stem cells (MTT test) [4]
CNC1(c2ccccc2Cl)CCCCC1=O (centres unmarked) [ketamin, 2-(2-chlorophenyl)-2-(methylamino)-cyclohexanone]	not changed	increase	–	–	–	–	–	–
CC12CC3CC(C)(C1)CC(N)(C3)C2 [memantine, 3,5-dimethyladamantan-1-amine]	–	–	~3	67	4	increase	2	increase the lifespan
